Measurements published in PMC6562610, “Inhibition of Hedgehog Signaling in Fibroblasts, Pancreatic, and Lung Tumor Cells by Oxy186, an Oxysterol Analogue with Drug-Like Properties” (Cells, 2019).
Entries after “also recorded” stand apart in the source; their conditions may differ.

How the values were obtained:
[1] = system: Gli1 expression in A549 cells; test: Inhibition of Gli1 expression in A549 cells, Q-RT-PCR; type: cell-based, human; conditions: 72 h
From the text: (§1) NIH3T3-E1 fibroblasts were obtained from ATCC (Manassas, VA) and cultured, as previously described. CAPAN-1 and PANC-1 human pancreatic cancer cells were obtained from ATCC and cultured in Dulbecco’s Modified Eagle Medium (DMEM) containing 10% heat-inactivated fetal bovine serum (FBS) (Hyclone Laboratories, Logan, UT, USA) and antibiotics, as previously described. The human lung cancer cell lines A549 and H2030 were obtained from ATCC and cultured in RPMI-1640 containing 10% FBS. The human hepatoma cell line HepG2 was obtained from ATCC and cultured in DMEM containing 10% FBS. Mouse embryonic fibroblasts (MEFs) from suppressor of fused (Sufu) null mice (Sufu^−/−) were provided by Dr. Philip Beachy of Stanford University and cultured in DMEM containing 10% FBS. Gant61, SB431542 and vismodegib (GDC0449) were obtained from Cayman Chemical, HPI-1 was obtained from Abcam. For experiments, cells were treated in a medium containing 5% FBS.
(§2) Total RNA was extracted with the RNeasy Plus Mini Kit from Qiagen, according to the manufacturer’s instructions. One microgram of RNA was reverse-transcribed using an iScript Reverse Transcription Supermix from Bio-Rad, to make single-stranded cDNA. The cDNAs were then mixed with Qi SYBR Green Supermix (Bio-Rad, Hercules, CA, USA) for quantitative RT-PCR assay using a Bio-Rad I-cycler IQ quantitative thermocycler. All PCR samples were prepared in triplicate wells in a 96-well plate. […] Fold changes in gene expression were calculated using the ΔΔCt method. […]
(§3) Figure 4 Inhibition of Gli and Shh expression in (a) PDAC (PANC-1) and (b,c) human lung cancer cells (A549 and H2030, respectively) by Oxy186. Cells were treated with the compounds as indicated in DMEM or RPMI 1640 containing 5% FBS for (a) 48 or (b,c) 72 hours, then RNA was extracted and analyzed by Q-RT-PCR for the expression of Gli1 and normalized to GAPDH expression. (d) CAPAN-1 cells were treated with the compounds, as indicated, in DMEM containing 5% FBS for 72 h, then RNA was extracted and analyzed by Q-RT-PCR for the expression of Shh and normalized to GAPDH expression. […]

A549 cells = test: Cell counting assay, A549; type: cell-based, human; conditions: 96 h
Method: (§4) A549 and H2030 cells cultured in 12-well plates at 20% confluence were treated with Oxy186, HPI-1, Gant61, or GDC0449 for 96 hours and then trypsinized and suspended in fresh medium. An aliquot of cell suspension was applied to a hemocytometer and counted under a microscope.
(§5) Figure 6 Inhibition of human pancreatic and lung cancer cell proliferation by Oxy186. (a,c) A549, (b) and (d) H2030, (e) PANC-1, and (f) CAPAN-1 cells were treated with the compounds as indicated in RPMI 1640 (a–d) or DMEM (e,f) containing 5% FBS for 96 h and then were trypsinized and counted. Data from a representative experiment are reported as the mean of triplicate determinations ± SD (* p < 0.05 vs. Control; ** p < 0.01 vs. control).

[2] = system: Shh expression in CAPAN-1 cells; test: Inhibition of Shh expression in CAPAN-1 cells, Q-RT-PCR; type: cell-based, human; conditions: 72 h
From the text: as §1, §2, §3

[3] = system: Gli1 expression in H2030 cells; test: Inhibition of Gli1 expression in H2030 cells, Q-RT-PCR; type: cell-based, human; conditions: 72 h
From the text: as §1, §2, §3

CAPAN-1 cells = test: Cell counting assay, CAPAN-1; type: cell-based, human; conditions: 96 h
Method: as §4, §5

[4] = system: Gli1 expression in PANC-1 cells; test: Inhibition of baseline Gli1 expression in PANC-1 cells, Q-RT-PCR; type: cell-based, human; conditions: 48 h
From the text: as §1, §2, §3

LXR target gene SREBP1c = test: Induction of LXR target gene SREBP1c in HepG2 cells, Q-RT-PCR; type: cell-based, human; conditions: 2 µM, 72 h
Method: (§6) Total RNA was extracted with the RNeasy Plus Mini Kit from Qiagen, according to the manufacturer’s instructions. One microgram of RNA was reverse-transcribed using an iScript Reverse Transcription Supermix from Bio-Rad, to make single-stranded cDNA. The cDNAs were then mixed with Qi SYBR Green Supermix (Bio-Rad, Hercules, CA, USA) for quantitative RT-PCR assay using a Bio-Rad I-cycler IQ quantitative thermocycler. All PCR samples were prepared in triplicate wells in a 96-well plate. After 40 cycles of PCR, melt curves were examined in order to ensure primer specificity. Fold changes in gene expression were calculated using the ΔΔCt method. Primers used for mouse were as follows: Oaz1 (5’-CCACTGCTTCGCCAGAGAG-3’) and (5’-CCCGGACCCAGGTTACTA-3’), Gli1 (5’-[…]-3’ and 5’-[…]-3’), Ptch1 (5’-CCATCGGCGACAAGAACC-3’ and 5’-[…]-3’), Hip (5’-[…]-3’ and 5’-[…]-3’), and Abca1 (5’-[…]-3’ and 5’-[…]-3’). Primers used for human were as follows: SREBP1c (5’-CGCTCCTCCATCAATGACA-3’ and 5’-[…]-3’), GAPDH (5’-[…]-3’ and 5’-[…]-3’), SHH (5’-CGGAGCGAGGAAGGGAAAG-3’) and (5’-[…]-3’), and GLI1 (5’-GAAGCCGAGCCGAGTATC-3’ and 5’-[…]-3’).
Figure 7 Induction of LXR target gene expression by Oxy186 and LXR agonist TO901317 (TO). (a) NIH3T3 cells and (b) HepG2 cells were treated with DMEM containing 5% FBS in the presence or absence of TO (2 µM) or Oxy186 (10 µM). […]

LXR target gene Abca1 = test: Induction of LXR target gene Abca1 in NIH3T3 cells, Q-RT-PCR; type: cell-based, mouse
Method: as §6
Figure 7 Induction of LXR target gene expression by Oxy186 and LXR agonist TO901317 (TO). (a) NIH3T3 cells and (b) HepG2 cells were treated with DMEM containing 5% FBS in the presence or absence of TO (2 µM) or Oxy186 (10 µM). […] Data from a representative experiment are reported as the mean of triplicate determinations ± SD (** p < 0.01 vs. control).

[5] = Metabolic stability in human liver microsomes; type: in vitro ADME
[6] = Metabolic stability in mouse liver microsomes; type: in vitro ADME
[7] = Pharmacokinetic study in mice, single oral dose; type: in vivo, balb/c mice; conditions: Figure 8b drug-like properties summary
Method: In an initial assessment of the drug-like properties of Oxy186, we performed a pharmacokinetic (PK) study in mice. Oxy186, formulated in 4% ethanol, 15% DMSO, and 81% corn oil, was administered to balb/c mice by oral gavage as a single dose of 50 mg/kg.
Figure 8 Drug-like properties of Oxy186. (a) A single dose of Oxy186 at 50 mg/kg, formulated in 4% ethanol/ 15% DMSO/ 81% corn oil, was administered to balb/c mice by oral gavage. Plasma samples were taken at 10 min, 30 min, 1, 2, 4, 6, 8, and 24 h, followed by LC/MS analysis of the plasma. (b) Evolution of Oxy186 from parent compound Oxy16 and their drug-like properties.

[8] = system: Hh target gene Gli1 expression in NIH3T3-E1 cells; test: Inhibition of CAPAN-1 conditioned medium (ligand)-induced Gli1 mRNA expression, Q-RT-PCR; type: cell-based; conditions: NIH3T3 cells activated by CAPAN-1 CM Hh ligands, 72 h
From the text: as §1
Growth medium in confluent […] tissue culture plates of CAPAN-1 cells were replaced with 10 ml of fresh growth medium and cells were incubated for a total of 7 days. Conditioned medium (CM), containing Shh and Ihh, was collected and spun down to remove any detached cells and debris, aliquoted, and stored frozen at −80 °C [37].
as §2, with “thermocycler.” for “thermocycler. All PCR samples were prepared in triplicate wells in a 96-well plate.”
Figure 3 Inhibition of ligand-induced Hedgehog signaling. […] After 72 h, RNA was extracted and analyzed by Q-RT-PCR for the expression of Hh target genes Gli1 (a,b,d) and Ptch1 (c), and normalized to Oaz1 expression. […] Luciferase activity was measured and normalized to the Renilla luciferase activity. […]

PANC-1 cells = test: Cell counting assay, PANC-1; type: cell-based, human; conditions: 96 h
Method: as §4, §5

H2030 cells = test: Cell counting assay, H2030; type: cell-based, human; conditions: 96 h
Method: as §4, §5

For `CS(=O)(=O)c1ccc(C(=O)Nc2ccc(Cl)c(-c3ccccn3)c2)c(Cl)c1` [GDC0449, vismodegib], the “Inhibition of expression of Gli1” value ([1]; 10 µM) was “significantly inhibited”, the “Inhibition of cell proliferation” value (A549 cells; 10 µM) was “not” and the “Inhibition of Shh expression” value [2] was “inhibitory effects on Shh expression in CAPAN-1 cells, but to a lesser extent”. The “Inhibition of expression of Gli1” value ([3]; 10 µM) was “significantly inhibited”, the Anti-proliferation effect (CAPAN-1 cells) was “marginally effective” and the “Inhibition of high baseline expression of Gli1” value ([4]; 10 µM) was “did not have a similar effect”.
In the case of `O=S(=O)(c1ccccc1)N(CC(F)(F)F)c1ccc(C(O)(C(F)(F)F)C(F)(F)F)cc1` [TO901317, reference compound], the “Induction of expression of SREBP1c” value (LXR target gene SREBP1c) is reported as “significantly induced” and the “Induction of expression of LXR target gene Abca1” value (LXR target gene Abca1; NIH3T3-E1 cells, 2 µM, 72 h) is reported as “significantly induced”.
With `CC(C)CCC(O)C(C)(O)C1CCC2C3CC=C4CC(O)CCC4(C)C3CCC21C` [Oxy16, 20-α, 22(R)-dihydroxycholesterol, reference compound] the “HLM, Half-Life” value [5] was 15 min, the remaining at 1 h ([5]; 60 min, read-out: HLM, % Remaining after 60 min) was 6% and the half-life ([5]; human, liver microsomes, read-out: HLM, Half-Life) was < 15 min. The remaining at 1 h ([6]; 60 min, read-out: MLM, % Remaining after 60 min) was 5%, the half-life ([6]; read-out: MLM, Half-Life) was 14 min and the “In vivo availability / stability (Figure 8b summary)” value [7] was “Unstable in vivo”. For the same compound, the IC50 [8] was > 5 µM and the “LXR agonism (Figure 8b summary)” value (LXR target gene Abca1; Figure 8b drug-like properties summary) was “Stronger LXR agonist”.
With `CN(C)c1ccccc1CN1CCCN(Cc2ccccc2N(C)C)C1c1ccncc1` [Gant61] the “Inhibition of expression of Gli1” value ([1]; 20 µM) was “significantly inhibited”, the “Inhibition of cell proliferation” value (A549 cells; 20 µM) was “significantly inhibited” and the “Inhibition of Shh expression” value [2] was “inhibitory effects on Shh expression in CAPAN-1 cells, but to a lesser extent; also recorded: significant inhibition”. The Anti-proliferation effect (PANC-1 cells) was “significant anti-proliferation effects”, the “Inhibition of expression of Gli1” value ([3]; 20 µM) was “significantly inhibited” and the Anti-proliferation effect (CAPAN-1 cells) was “significant anti-proliferation effects”. The Anti-proliferative effect (H2030 cells) was “significant anti-proliferative effect” and the “Inhibition of high baseline expression of Gli1” value ([4]; 20 µM) was “significantly inhibited”.
